Assay results as given in US5585353A, “Antibiotic peptides containing D-amino acids” (The Rockefeller University, priority 1994, dated 1996).
Residues, ends and D or L forms follow the SMILES beside them. No end group written: not given here.

Assays:
Type in all cases: cell-based
[1] = tested on: Sheep red cells; assay: inhibition zone assay, lethal concentration on sheep red cells; details: thin agarose plates
Protocol: (§1) Thin agar or agarose plates (8.5 cm diameter) were prepared with 6 ml of rich medium containing 100 ug/ml of streptomycin and 2×10^5 viable cells of a test organism resistant to streptomycin. Wells of 3.5 mm diameter were punched in the plates and 3 ul of serially diluted samples were placed in the wells. The diameters of the zones of inhibition around the wells were measured after overnight incubation at 30° or 37° C. For each peptide the squares of the zone diameters were plotted against the logarithm of the concentration, and from the slopes and intercepts the lethal concentrations were calculated as described by Hultmark (1983) EMBO J. 2, 571-76 or Hultmark et al (1982) Eur. J. Biochem. 127 207-217 each of which being incorporated herein by reference.
(§2) Lethal Concentrations calculated from inhibition zones on thin agarose
(§3) S. aureus Cowan 1; Strep: S. pyogenes; SRC: Sheep red cells.; *all amino

[2] = tested on: S. aureus Cowan 1; assay: inhibition zone assay, lethal concentration; details: S. aureus Cowan 1, thin agarose plates
Protocol: as §1, §2
aeruginosa; Bs11: B. subtilis; +ME: plates prepared with medium E; Staph:
as §3

[3] = tested on: E. coli D21; assay: inhibition zone assay, lethal concentration; details: E. coli D21, thin agarose plates
Protocol: as §1, §2
(§4) plates seeded with the respective organisms. D21: E. coli; OT97: P.

[4] = tested on: P. aeruginosa OT97; assay: inhibition zone assay, lethal concentration; details: P. aeruginosa OT97, thin agarose plates
Protocol: as §1, §2, §4
(§5) aeruginosa; Bs11: B. subtilis; +ME: plates prepared with medium E; Staph: […]

[5] = tested on: S. pyogenes; assay: inhibition zone assay, lethal concentration; details: thin agarose plates
Protocol: as §1, §2, §3

[6] = tested on: B. subtilis Bs11; assay: inhibition zone assay, lethal concentration; details: for Lethal Concentrations Bs11 +ME: B. subtilis Bs11, plates prepared with medium E; for Lethal Concentrations Bs11: B. subtilis Bs11, thin agarose plates
Protocol: as §1, §2, §5

With `CC[C@H](C)[C@H](NC(=O)CNC(=O)[C@H](CCC(N)=O)NC(=O)CNC(=O)[C@@H](NC(=O)[C@H](CCCCN)NC(=O)[C@H](CCC(=O)O)NC(=O)[C@@H](NC(=O)[C@H](CCCCN)NC(=O)[C@H](CCCCN)NC(=O)[C@H](Cc1ccccc1)NC(=O)[C@H](CC(C)C)NC(=O)[C@H](CCCCN)NC(=O)[C@H](Cc1c[nH]c2ccccc12)NC(=O)[C@@H](N)CCCCN)[C@@H](C)CC)C(C)C)C(=O)NCC(=O)N[C@@H](C)C(=O)N[C@H](C(=O)N[C@@H](CC(C)C)C(=O)N[C@@H](CCCCN)C(=O)N[C@H](C(=O)N[C@@H](CC(C)C)C(=O)N[C@H](C(=O)N[C@H](C(=O)NCC(=O)N[C@@H](CC(C)C)C(N)=O)[C@@H](C)O)[C@@H](C)O)C(C)C)C(C)C` [Compound 3] the “Lethal Concentrations SRC” value [1] was > 200 µM.
With `CC[C@@H](C)[C@@H](NC(=O)CNC(=O)[C@@H](CCC(N)=O)NC(=O)CNC(=O)[C@H](NC(=O)[C@@H](CCCCN)NC(=O)[C@@H](CCC(=O)O)NC(=O)[C@H](NC(=O)[C@@H](CCCCN)NC(=O)[C@@H](CCCCN)NC(=O)[C@@H](Cc1ccccc1)NC(=O)[C@@H](CC(C)C)NC(=O)[C@@H](CCCCN)NC(=O)[C@@H](Cc1c[nH]c2ccccc12)NC(=O)[C@H](N)CCCCN)[C@H](C)CC)C(C)C)C(=O)NCC(=O)N[C@H](C)C(=O)N[C@@H](C(=O)N[C@H](CC(C)C)C(=O)N[C@H](CCCCN)C(=O)N[C@@H](C(=O)N[C@H](CC(C)C)C(=O)N[C@@H](C(=O)N[C@@H](C(=O)NCC(=O)N[C@H](CC(C)C)C(N)=O)[C@H](C)O)[C@H](C)O)C(C)C)C(C)C` [Compound 4] the “Lethal Concentrations SRC” value [1] was 500 µM.
`CC[C@H](C)[C@H](NC(=O)CNC(=O)[C@@H](NC(=O)[C@H](CCCCN)NC(=O)[C@H](CCCCN)NC(=O)[C@H](Cc1ccccc1)NC(=O)[C@H](CC(C)C)NC(=O)[C@H](CCCCN)NC(=O)[C@H](Cc1c[nH]c2ccccc12)NC(=O)[C@@H](N)CCCCN)[C@@H](C)CC)C(=O)NCC(=O)N[C@@H](C)C(=O)N[C@H](C(=O)N[C@@H](CC(C)C)C(=O)N[C@@H](CCCCN)C(=O)N[C@H](C(=O)N[C@@H](CC(C)C)C(=O)N[C@H](C(=O)N[C@H](C(=O)NCC(=O)N[C@@H](CC(C)C)C(=O)N1CCC[C@H]1C(=O)N[C@@H](C)C(=O)N[C@@H](CC(C)C)C(=O)N[C@H](C(=O)N[C@@H](CO)C(N)=O)[C@@H](C)CC)[C@@H](C)O)[C@@H](C)O)C(C)C)C(C)C` [Compound 6] was tested, and the “Lethal Concentrations SRC” value [1] was > 600 µM.
In the case of `CC[C@@H](C)[C@@H](NC(=O)CNC(=O)[C@H](NC(=O)[C@@H](CCCCN)NC(=O)[C@@H](CCCCN)NC(=O)[C@@H](Cc1ccccc1)NC(=O)[C@@H](CC(C)C)NC(=O)[C@@H](CCCCN)NC(=O)[C@@H](Cc1c[nH]c2ccccc12)NC(=O)[C@H](N)CCCCN)[C@H](C)CC)C(=O)NCC(=O)N[C@H](C)C(=O)N[C@@H](C(=O)N[C@H](CC(C)C)C(=O)N[C@H](CCCCN)C(=O)N[C@@H](C(=O)N[C@H](CC(C)C)C(=O)N[C@@H](C(=O)N[C@@H](C(=O)NCC(=O)N[C@H](CC(C)C)C(=O)N1CCC[C@@H]1C(=O)N[C@H](C)C(=O)N[C@H](CC(C)C)C(=O)N[C@@H](C(=O)N[C@H](CO)C(N)=O)[C@H](C)CC)[C@H](C)O)[C@H](C)O)C(C)C)C(C)C` [Compound 7], the “Lethal Concentrations SRC” value [1] was > 400 µM.
With `CC[C@@H](C)[C@@H](NC(=O)CN)C(=O)NCC(=O)N[C@H](CCCCN)C(=O)N[C@H](Cc1ccccc1)C(=O)N[C@H](CC(C)C)C(=O)N[C@H](Cc1c[nH]cn1)C(=O)N[C@H](CO)C(=O)N[C@H](C)C(=O)N[C@H](CCCCN)C(=O)N[C@H](CCCCN)C(=O)N[C@H](Cc1ccccc1)C(=O)NCC(=O)N[C@H](CCCCN)C(=O)N[C@H](C)C(=O)N[C@H](Cc1ccccc1)C(=O)N[C@@H](C(=O)NCC(=O)N[C@H](CCC(=O)O)C(=O)N[C@@H](C(=O)N[C@H](CCSC)C(=O)N[C@H](CC(N)=O)C(=O)N[C@H](CO)C(N)=O)[C@H](C)CC)C(C)C` [Compound 9] (HELM PEPTIDE1{G.[dI].G.[dK].[dF].[dL].[dH].[dS].[dA].[dK].[dK].[dF].G.[dK].[dA].[dF].[dV].G.[dE].[dI].[dM].[dN].[dS].[am]}$$$$V2.0) the “Lethal Concentrations Staph” value [2] was 100 µM, the “Lethal Concentrations SRC” value [1] was > 400 µM and the “Lethal Concentrations D21” value [3] was 1 µM. For the same compound, the “Lethal Concentrations OT97” value [4] was 30 µM, the “Lethal Concentrations Strep” value [5] was 3 µM and the “Lethal Concentrations Bs11 +ME” value [6] was 4 µM. The “Lethal Concentrations Bs11” value [6] was 3 µM.
In the case of `CC[C@H](C)[C@H](NC(=O)CN)C(=O)NCC(=O)N[C@@H](C)C(=O)N[C@H](C(=O)N[C@@H](CC(C)C)C(=O)N[C@@H](CCCCN)C(=O)N[C@H](C(=O)N[C@@H](CC(C)C)C(=O)N[C@H](C(=O)N[C@H](C(=O)NCC(=O)N[C@@H](CC(C)C)C(=O)N1CCC[C@H]1C(=O)N[C@@H](C)C(=O)N[C@@H](CC(C)C)C(=O)N[C@H](C(=O)N[C@@H](CO)C(=O)N[C@@H](Cc1c[nH]c2ccccc12)C(=O)N[C@H](C(=O)N[C@@H](CCCCN)C(=O)N[C@@H](CCCNC(=N)N)C(=O)N[C@@H](CCCCN)C(=O)N[C@@H](CCCNC(=N)N)C(=O)N[C@@H](CCC(N)=O)C(=O)N[C@@H](CCC(N)=O)C(N)=O)[C@@H](C)CC)[C@@H](C)CC)[C@@H](C)O)[C@@H](C)O)C(C)C)C(C)C` [Compound 10, Melittin], the “Lethal Concentrations Staph” value [2] was 0.2 µM, the “Lethal Concentrations SRC” value [1] was 4 to 8 µM and the “Lethal Concentrations D21” value [3] was 0.8 µM. The “Lethal Concentrations OT97” value [4] was 3 µM, the “Lethal Concentrations Strep” value [5] was 0.5 µM and the “Lethal Concentrations Bs11 +ME” value [6] was 0.3 µM. For the same compound, the “Lethal Concentrations Bs11” value [6] was 0.2 µM.
For “GIGKFLHSAKKFGKAFVGEIMNS-NH2 [Compound 8]”, the “Lethal Concentrations Staph” value [2] was 300 µM, the “Lethal Concentrations SRC” value [1] was 300 µM and the “Lethal Concentrations D21” value [3] was 4 µM. The “Lethal Concentrations OT97” value [4] was 30 µM, the “Lethal Concentrations Strep” value [5] was 4 µM and the “Lethal Concentrations Bs11 +ME” value [6] was 8 µM. For the same compound, the “Lethal Concentrations Bs11” value [6] was 3 µM.
